Data on 23 molecules can be found in patent US8063225B2, “Tricyclic compound derivatives useful in the treatment of neoplastic diseases, inflammatory disorders and immunomodulatory disorders” (Chembridge Corporation, priority 2006, dated 2011).

The target in one experiment is T1, IGF1R tyrosine kinase (Homo sapiens, UniProt P08069).
T1 construct: 6×His- or GST-tagged kinase domain fragments of the corresponding RTKs expressed in baculovirus system; host or cells: baculovirus system
Nature of the experiment: IGF1R tyrosine kinase assay (Kinase-Glo ATP depletion or PT66/PT100 AlphaScreen). The conditions noted are these: biochemical tyrosine kinase assay. An outline of the steps:
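Luminescence of remaining ATP (Kinase-Glo) or anti-phosphotyrosine AlphaScreen proximity signal served as read-out. Reactions held purified tagged kinase domain, poly(Glu-Tyr) substrate and 10 μM ATP at pH 7.5. IC50 values came from non-linear regression fits.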
In general terms: Kinase-Glo reads ATP consumption through a luciferase reaction.

In another experiment the target is T2, IGF1 receptor (Homo sapiens, UniProt P08069).
T2 construct: MCF7 human breast cancer cells expressing IGF1 receptor; endogenous in cells; host or cells: MCF7 human breast cancer cells
Nature of the experiment: ELISA-based assay of IGF1 receptor autophosphorylation inhibition in cells. In kind it is cell-based. The conditions noted are these: IGF1R phosphorylation inhibition in MCF7 cells. As for the experimental part:
In another embodiment, compounds that interact with the IGF1R kinase domain are tested in a cell-based assay system. In accordance with this embodiment, cells expressing a full-length IGF1 receptor or a fragment thereof containing the IGF1R kinase domain, are contacted with a candidate or a control compound and the ability of the compound to block tyrosine kinase activity of IGF1R within a cell is determined. This assay may be used to screen a single compound or a large library of candidate compounds. Typically, the cells or cell lines are of mammalian origin and they can express the IGF1 receptor, or functional IGF1R kinase domain fragment, endogenously or be genetically engineered to express the IGF1R, or functional fragment thereof. The ability of the candidate compound to inhibit IGF1R kinase activity can be determined by methods known to those skilled in the art. For example, the inhibition can be determined by ELISA-type assay or Western blot analysis with cell lysates or immunoprecipitated IGF1R receptor using various anti-IGF1R and anti-phosphotyrosine antibodies.
In general, cells expressing IGF1R are treated with modulators (i.e., inhibitors or activators) of IGF1R kinase activity and cell lysates are produced from these treated cells. IGF1Rs are isolated from the lysate by immunoprecipitation and analyzed for phosphotyrosine content. Alternatively, or in addition, cellular protein substrates phosphorylated by IGFR may be immunoprecipitated from the lysates and their degree of tyrosine phosphorylation determined.
MCF7 human breast cancer cells expressing IGF1 receptor or an engineered […] fibroblast cell line NIH 3T3 overexpressing full-length IGF1R are an exemplary cellular models in which to perform such assays. Such cells may be maintained in DMEM medium supplemented with 10% fetal bovine serum (FBS), 4% L-glutamine, 1% antibiotic solution (penicillin-Streptomycin) in a humidified atmosphere of 95% air and 5% CO2 at 37° C. Confluent cells in T175 cell culture flasks are incubated overnight with serum-free DMEM medium. After the serum starvation step, the cells are detached and split into a standard 96-well cell culture plate (one T175 flask per plate, 30 μl of cell suspension per plate well). Tested inhibitors from their 10 mM stock solutions in DMSO are subsequently added at various concentrations in serum-free DMEM medium for 1 hour incubation at 37° C. in CO2-incubator; total DMSO concentration in both treated and control wells is adjusted to 1%. Cells are then stimulated for 10 minutes with 100 nM IGF-1 added in 30 μl DMEM. After treatment, cells are lysed by addition of 30 μl of 4× lysis buffer (phosphate-buffered saline (PBS), 2% Triton-X100, 1 mM phenylmethylsulphonyl fluoride (PMSF) and 8 mM activated orthovanadate), mixing and incubation for 15 minute at room temperature. To prepare assay plates, 96-well ELISA Plates (Pierce Chemical, Reacti-bind plates) were coated by goat-anti-rabbit Fc antiserum by adding 0.25 μg antiserum per well in 0.2M sodium bicarbonate buffer per well and incubating overnight at 4° C. After incubation, the plate is washed three times by PBS with 0.02% Tween-20, supplied with 25 ng/50 μl per well of anti-IGF1R antibody (C-20, Santa Cruz Biotechnology) and incubated for several hours to overnight. Prior to the addition of the prepared cellular lysates, the antibody solution is aspirated, wells washed with PBS and supplied with 25 μl per well of Starting Block buffer (Pierce Chemical).
To measure tyrosine phosphorylation of the beta-subunits of the IGF1R, 25-50 μl of the lysates are transferred from the stimulation plate to the wells of the prepared assay plate and incubated overnight at 4° C. The wells are washed with PBS with 0.02% Tween-20, incubated with 50 μl of 1:3000 dilution of anti-phosphotyrosine 4G10-HRP antibody conjugate (Upstate Biotechnology) for 2 hours at room temperature and washed again. […]

What is called IC50 is the concentration needed to halve the response being measured. Low readings indicate inhibition by little substance, high ones a need for much substance.

Bounds are passed on as bounds.

T2 sequence (P08069 741-1367 limits assumed): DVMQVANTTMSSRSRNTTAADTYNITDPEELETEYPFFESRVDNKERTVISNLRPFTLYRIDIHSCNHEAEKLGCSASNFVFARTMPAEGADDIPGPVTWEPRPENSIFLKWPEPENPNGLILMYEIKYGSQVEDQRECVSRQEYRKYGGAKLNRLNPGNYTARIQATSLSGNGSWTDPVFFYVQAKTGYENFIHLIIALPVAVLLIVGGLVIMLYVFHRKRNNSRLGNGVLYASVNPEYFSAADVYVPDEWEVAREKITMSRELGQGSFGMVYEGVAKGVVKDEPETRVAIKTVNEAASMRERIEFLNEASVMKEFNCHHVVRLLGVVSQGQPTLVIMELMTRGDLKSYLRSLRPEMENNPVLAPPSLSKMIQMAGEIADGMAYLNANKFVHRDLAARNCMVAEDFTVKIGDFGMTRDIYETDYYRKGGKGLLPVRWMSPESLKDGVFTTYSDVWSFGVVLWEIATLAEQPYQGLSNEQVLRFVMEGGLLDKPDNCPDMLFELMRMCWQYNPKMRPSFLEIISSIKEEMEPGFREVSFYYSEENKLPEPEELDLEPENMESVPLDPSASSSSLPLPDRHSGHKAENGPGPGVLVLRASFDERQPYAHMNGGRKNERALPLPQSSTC
T2 sequence (P08069 31-736 partner limits assumed): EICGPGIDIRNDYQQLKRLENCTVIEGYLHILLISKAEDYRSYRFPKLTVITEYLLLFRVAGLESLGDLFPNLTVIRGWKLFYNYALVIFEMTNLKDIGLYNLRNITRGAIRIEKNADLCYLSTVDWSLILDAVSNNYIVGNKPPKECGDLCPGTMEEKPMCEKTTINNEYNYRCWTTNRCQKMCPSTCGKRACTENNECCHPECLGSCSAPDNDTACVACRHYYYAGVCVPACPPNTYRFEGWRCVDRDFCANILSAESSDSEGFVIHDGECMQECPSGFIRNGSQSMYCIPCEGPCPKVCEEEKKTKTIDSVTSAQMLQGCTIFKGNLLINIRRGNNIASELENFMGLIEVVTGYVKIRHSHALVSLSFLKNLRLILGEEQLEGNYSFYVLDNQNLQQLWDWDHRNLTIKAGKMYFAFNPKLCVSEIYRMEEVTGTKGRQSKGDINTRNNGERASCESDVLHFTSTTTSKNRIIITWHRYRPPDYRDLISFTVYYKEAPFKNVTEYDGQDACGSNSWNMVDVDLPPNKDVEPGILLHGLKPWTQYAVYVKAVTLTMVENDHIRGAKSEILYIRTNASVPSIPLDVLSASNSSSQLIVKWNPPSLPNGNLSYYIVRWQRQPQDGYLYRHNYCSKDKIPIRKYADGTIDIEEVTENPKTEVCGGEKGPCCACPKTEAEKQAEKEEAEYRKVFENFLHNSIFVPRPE
T1 sequence (P08069 999-1274 limits assumed): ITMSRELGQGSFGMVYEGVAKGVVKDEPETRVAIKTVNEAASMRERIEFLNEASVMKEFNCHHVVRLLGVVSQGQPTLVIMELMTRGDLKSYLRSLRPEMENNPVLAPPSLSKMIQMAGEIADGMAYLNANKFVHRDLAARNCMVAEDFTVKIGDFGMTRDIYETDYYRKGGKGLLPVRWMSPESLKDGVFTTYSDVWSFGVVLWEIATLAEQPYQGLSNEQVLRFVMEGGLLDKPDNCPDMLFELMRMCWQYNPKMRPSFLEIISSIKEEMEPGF

As to `Cc1c(Cl)cccc1OC[C@H](O)CNc1cc[nH]c(=O)c1-c1nc2cc3c(cc2[nH]1)C(=O)N(C1CCN(C)CC1)C3=O` [compound 94], the concentration for half-maximal inhibition (IC50) at IGF1R tyrosine kinase was less than 0.5 µM; against IGF1 receptor it was 0.5 to 5 µM.
For `C[C@H](O)CN1C(=O)c2cc3nc(-c4c(NC[C@@H](O)c5cccc(Cl)c5)cc[nH]c4=O)[nH]c3cc2C1=O` [compound 31] the same measures were 5 to 15 µM and 5 to 15 µM.
For `Cc1ncsc1CCN1C(=O)c2cc3nc(-c4c(NC[C@@H](O)c5cccc(Cl)c5)cc[nH]c4=O)[nH]c3cc2C1=O` [compound 32], in that order: 5 to 15 µM and 5 to 15 µM.
For `CCN1CCC(N2Cc3cc4nc(-c5c(NC[C@@H](O)COc6ccc(C)cc6C)cc[nH]c5=O)[nH]c4cc3C2=O)CC1` [compound 144], in that order: less than 0.5 µM and 0.5 to 5 µM.
With `CN1CCC(N2C(=O)c3cc4nc(-c5c(NC[C@@H](O)COc6cccc(C(F)(F)F)c6)cc[nH]c5=O)[nH]c4cc3C2=O)CC1` [compound 97], the IC50 at IGF1R tyrosine kinase and on IGF1 receptor was 0.5 to 5 µM in each case.
On to `Cc1cc(C)c(OC[C@H](O)CNc2cc[nH]c(=O)c2-c2nc3cc4c(cc3[nH]2)C(=O)N(C2CCN(C)CC2)C4=O)c(C)c1` [compound 98], for which the IC50 on IGF1R tyrosine kinase is less than 0.5 µM; on IGF1 receptor, 5 to 15 µM.
For `O=C1c2cc3nc(-c4c(NC[C@@H](O)c5cccc(Cl)c5)cc[nH]c4=O)[nH]c3cc2C(=O)N1C[C@@H]1CCCO1` [compound 29], in that order: more than 15 µM and more than 15 µM.
For `CN1CCC(N2C(=O)c3cc4nc(-c5c(NC[C@@H](O)COc6c(F)ccc(Cl)c6F)cc[nH]c5=O)[nH]c4cc3C2=O)CC1` [compound 95], in that order: less than 0.5 µM and 5 to 15 µM.
Consider `CN1CCC(N2C(=O)c3cc4nc(-c5c(N[C@H](CO)Cc6c[nH]cn6)cc[nH]c5=O)[nH]c4cc3C2=O)CC1` [compound 2], for which the IC50 against IGF1R tyrosine kinase and against IGF1 receptor was more than 15 µM throughout.
Consider `Cc1ccc(OCC(O)CNc2cc[nH]c(=O)c2-c2nc3cc4c(cc3[nH]2)C(=O)N(C2CCN(C)CC2)C4=O)c(C)c1` (stereo not shown) [compound 15], for which the figures for the IC50 on IGF1R tyrosine kinase and against IGF1 receptor were less than 0.5 µM and 0.5 to 5 µM, respectively.
For `Cc1ccc(OC[C@@H](O)CNc2cc[nH]c(=O)c2-c2nc3cc4c(cc3[nH]2)C(=O)N(C2CCN(C)CC2)C4=O)c(C)c1` [compound 64] the same measures were less than 0.5 µM and more than 15 µM.
For `Cc1ccc(OC[C@H](O)CNc2cc[nH]c(=O)c2-c2nc3cc4c(cc3[nH]2)C(=O)N(C2CCN(C)CC2)C4=O)cc1Cl` [compound 99], in that order: less than 0.5 µM and more than 15 µM.
As to `CCc1cc(C)ccc1OC[C@H](O)CNc1cc[nH]c(=O)c1-c1nc2cc3c(cc2[nH]1)CN(C1CCN(C)CC1)C3=O` [compound 141], the IC50 was less than 0.5 µM against IGF1R tyrosine kinase and 0.5 to 5 µM on IGF1 receptor.
For `O=C1c2cc3nc(-c4c(NC[C@@H](O)c5cccc(Cl)c5)cc[nH]c4=O)[nH]c3cc2C(=O)N1CCc1ccncc1` [compound 28], in that order: more than 15 µM and more than 15 µM.
As for `Cc1ccc(OC[C@H](O)CNc2cc[nH]c(=O)c2-c2nc3cc4c(cc3[nH]2)CN(C2CCN(C)CC2)C4=O)c(C)c1` [compound 130], the IC50 is less than 0.5 µM on IGF1R tyrosine kinase and 0.5 to 5 µM on IGF1 receptor.
For `Cc1cc(C)c(OC[C@H](O)CNc2cc[nH]c(=O)c2-c2nc3cc4c(cc3[nH]2)C(=O)N(C2CCN(C)CC2)C4=O)c(CS(C)(=O)=O)c1` [compound 84] the same measures were 0.5 to 5 µM and 0.5 to 5 µM.
For `CCN1CCC(N2C(=O)c3cc4nc(-c5c(NC[C@@H](O)COc6ccc(C)cc6C)cc[nH]c5=O)[nH]c4cc3C2=O)CC1` [compound 143], in that order: less than 0.5 µM and less than 0.5 µM.
For `Cc1ccc(OC[C@H](O)CNc2cc[nH]c(=O)c2-c2nc3c(C)c4c(cc3[nH]2)C(=O)N(C2CCN(C)CC2)C4)c(C)c1` [compound 139], in that order: less than 0.5 µM and 0.5 to 5 µM.
Regarding `Cc1ccc(OC[C@H](O)CNc2cc[nH]c(=O)c2-c2nc3c(C)c4c(cc3[nH]2)C(=O)N(C2CCN(C)CC2)C4=O)c(C)c1` [compound 110], the IC50 is less than 0.5 µM against IGF1R tyrosine kinase and 5 to 15 µM at IGF1 receptor.
For `Cc1ccc(OC[C@H](O)CNc2cc[nH]c(=O)c2-c2nc3cc4c(cc3[nH]2)C(=O)N(C2CCNCC2)C4=O)c(C)c1` [compound 142], in that order: less than 0.5 µM and less than 0.5 µM.
For `CC(C)(CO)CN1C(=O)c2cc3nc(-c4c(NC[C@@H](O)c5cccc(Cl)c5)cc[nH]c4=O)[nH]c3cc2C1=O` [compound 26] the same measures were 0.5 to 5 µM and 5 to 15 µM.
For `Cc1ccc2c(ccn2C[C@H](O)CNc2cc[nH]c(=O)c2-c2nc3cc4c(cc3[nH]2)C(=O)N(C2CCN(C)CC2)C4=O)c1` [compound 131] the same measures were 5 to 15 µM and 0.5 to 5 µM.
Turning to `COc1cccc(OCC(O)CNc2cc[nH]c(=O)c2-c2nc3cc4c(cc3[nH]2)C(=O)N(C2CCN(C)CC2)C4=O)c1` (stereo not shown) [compound 6], the figures for the half-maximal inhibitory concentration (IC50) against IGF1R tyrosine kinase and at IGF1 receptor were less than 0.5 µM and 0.5 to 5 µM, respectively.
